Assay results published in article PMC11171523 (2024).

How the values were obtained:
[1] = tested on: poly A–poly U (pApU, AU-RNA) (RNA, polymer) A/U; test: UV melting at 260 nm; details: Na+ (sodium cacodylate, I = 0.05 M); pH 7; ratio [dye]/[polynucleotide] = 0.1; error ±0.5 °C; per base
[2] = tested on: poly A–poly U (pApU, AU-RNA) (RNA, polymer) A/U; test: fluorimetric titration, Scatchard fit; details: Na+ (sodium cacodylate, I = 0.05 M); pH 7.0, 25 °C; dye 50 nM; n fixed at 0.2; polynucleotide as phosphate; per base
[3] = tested on: poly dAdT–poly dAdT (poly(dAdT)2, AT-DNA) (DNA, polymer) AT; test: CD titration (induced CD); details: Na+ (sodium cacodylate, I = 0.05 M), pH 7
[4] = tested on: poly dGdC–poly dGdC (poly(dGdC)2, GC-DNA) (DNA, polymer) GC; test: CD titration (induced CD); details: Na+ (sodium cacodylate, I = 0.05 M), pH 7
[5] = ratio [dye]/[polynucleotide] = 0.1 and 0.5, negative ICD at 308–324 nm

Compound | ΔTm [1] | log Ks [2] | binding [3, 5] | binding [4, 5] | binding ([3]; ratio [dye]/[polynucleotide] = 0.5, weaker ICD than GC-DNA) | binding ([4]; ratio [dye]/[polynucleotide] = 0.5, strong negative ICD at 325 nm)
C[N+](C)(C)c1ccc(/C=C/c2cc(/C=C/c3ccc([N+](C)(C)C)cc3)c(/C=C/c3ccc([N+](C)(C)C)cc3)cc2/C=C/c2ccc([N+](C)(C)C)cc2)cc1 | +12.5 °C | 8.6 | – | – | – | –
C[n+]1ccc(/C=C/c2cc(/C=C/c3cc[n+](C)cc3)c(/C=C/c3cc[n+](C)cc3)cc2/C=C/c2cc[n+](C)cc2)cc1 | +6.4 °C | 8.2 | – | – | – | –
C[n+]1ccc(/C=C/c2cc(/C=C/c3cc[n+](C)cc3)cc(/C=C/c3cc[n+](C)cc3)c2)cc1 | +8.5 °C | 8.7 | – | – | – | –
C#CC[N+](C)(C)c1ccc(/C=C/c2cc(/C=C/c3ccc([N+](C)(C)CC#C)cc3)cc(/C=C/c3ccc([N+](C)(C)CC#C)cc3)c2)cc1 | +18.1 °C | 8.6 | – | – | – | –
CCCC[N+](C)(CCCC)c1ccc(/C=C/c2cc(/C=C/c3ccc([N+](C)(CCCC)CCCC)cc3)c(/C=C/c3ccc([N+](C)(CCCC)CCCC)cc3)cc2/C=C/c2ccc([N+](C)(CCCC)CCCC)cc2)cc1 | 0 °C | 8.6 | – | – | – | –
CCCC[N+](C)(CCCC)c1ccc(/C=C/c2cc(/C=C/c3ccc([N+](C)(CCCC)CCCC)cc3)cc(/C=C/c3ccc([N+](C)(CCCC)CCCC)cc3)c2)cc1 | +5.1 °C | 8.9 | yes | yes | – | –
CCCC[n+]1ccc(/C=C/c2cc(/C=C/c3cc[n+](CCCC)cc3)cc(/C=C/c3cc[n+](CCCC)cc3)c2)cc1 | +1.5 °C | 8.7 | – | – | – | –
C#CC[N+](C)(C)c1ccc(/C=C/c2cc(/C=C/c3ccc([N+](C)(C)CC#C)cc3)c(/C=C/c3ccc([N+](C)(C)CC#C)cc3)cc2/C=C/c2ccc([N+](C)(C)CC#C)cc2)cc1 | +10.4 °C | 8.9 | – | – | – | –
C[N+](C)(C)c1ccc(/C=C/c2cc(/C=C/c3ccc([N+](C)(C)C)cc3)cc(/C=C/c3ccc([N+](C)(C)C)cc3)c2)cc1 | +23.2 °C | 8.9 | – | – | yes | yes
CCCC[n+]1ccc(/C=C/c2cc(/C=C/c3cc[n+](CCCC)cc3)c(/C=C/c3cc[n+](CCCC)cc3)cc2/C=C/c2cc[n+](CCCC)cc2)cc1 | +1.7 °C | 7.6 | – | – | – | –
